For this test, the system named is HSP70+L. infantum amastigotes. In words: ex vivo splenic explant culture of infrared HSP70+L. infantum-infected BALB/c mice, infrared fluorescence readout (384-well). Type of test: cell-based. The settings on record: Leishmania infantum. The text has this:
Several parameters were included in the development of the explant culture. i) Parasite infection rate is not equal in all animals from the same batch, thus in order to normalize the ex vivo culture, only spleens with weights ≥ 0.7 g were selected to prepare the ex vivo explants. ii) The starting cell density was adjusted in terms of fluorescence emission in a wide range of arbitrary units (0.25, 0.5, 1.0, and 2.0 x 10^5 AU). Since we intend to evaluate the drug inhibition in ex vivo cultures for at least 4 days, the initial number of AU that matched this condition was chosen. iii) Discrimination between drug-treated and untreated control cells was assessed by adding amphotericin B (AmpB) to the explants cultures. iv) To prevent the edge effect caused by evaporation from outer wells in assays with multi-day incubations, the top and bottom rows as well as the first and last columns were filled with ddH2O. In addition, the positive and negative controls were symmetrically distributed through the columns.
A total of 298 compounds belonged to three distinct collections including i) indenoisoquinolines obtained from Dr. Mark S. Cushman, Department of Medicinal Chemistry and Molecular Pharmacology (Purdue University, Indiana, USA.); ii) podophylotoxin and quinones were a kindly gift from Dr. Arturo San Feliciano, Deparment of Química Farmacéutica (Universidad de Salamanca, Spain) and iii) carbolins obtained from Dr. Sankaran Murugeshan, Department of Pharmacy, (Birla Institute of Technology & Science, Pilani, India). Stock solutions consisted of test compound at a concentration of 200 μM in 20% DMSO. The 200 μM master plates were further diluted by transferring aliquots of 5 μl into black 384-well plates with clear bottom containing 45 μl of culture medium. The final concentration of DMSO in both assay and control wells not exceeded 1% (v/v). […] The plates were incubated at 37 °C and 5% CO2 and at 0, 24, 48 and 72 h the infrared signal was recorded using the Odyssey infrared system (LI-COR, USA). […]
The antileishmanial effect of the compounds was calculated as the percentage inhibition in relation to AmpB and DMSO as follows: (mean of 1%DMSO–Experimental Value) / (mean of 1%DMSO–mean of AmpBEC100) x 100. […] The quality of the assay was given by Z’ factor that was calculated as 1 –[(3SD positive controls + 3SD negative controls) / (mean of the positive controls–mean of the negative controls)]. […]
Firstly, we checked the fluorescence dynamic range in which we could assure the effective and quantifiable replication of intracellular parasites inside macrophages in the absence of active drug over the course of the ex vivo culture. […] For this purpose, we fixed the fluorescence level per well, instead of adjusting the number of cells. […]

Structures are written as SMILES. Where two headings read alike, the source gives them in different places.

In general, IC50 refers to the concentration needed to halve the response being measured. Regarding `C[C@@H]1[C@H](O)[C@@H](C)/C=C/C=C/C=C/C=C/C=C/C=C/C=C/[C@H](O[C@@H]2O[C@H](C)[C@@H](O)[C@H](N)[C@@H]2O)C[C@@H]2O[C@](O)(C[C@@H](O)C[C@@H](O)[C@H](O)CC[C@@H](O)C[C@@H](O)CC(=O)O[C@H]1C)C[C@H](O)[C@H]2C(=O)O` [AmpB, amphotericin B], the IC50 (72 h, across all starting cell densities (1.0, 2.0 and 4.0 x10^5 AU), read-out: IC50 values at 72 h) lay in the range of 270 to 380 nM; the IC50 (starting cell density High: 4x10^5 AU, ten 2-fold dilutions from 10 μM, Fig 4E) was found to be 310 ± 50 nM; the IC50 (starting cell density Low: 1x10^5 AU, ten 2-fold dilutions from 10 μM, Fig 4C) stood at 380 ± 60 nM; 270 ± 40 nM corresponded to half-maximal inhibition (starting cell density Medium: 2x10^5 AU, ten 2-fold dilutions from 10 μM, Fig 4D) (IC50).

Values taken from publication PMC4380447, “Infrared Fluorescent Imaging as a Potent Tool for In Vitro, Ex Vivo and In Vivo Models of Visceral Leishmaniasis” (PLoS Neglected Tropical Diseases, 2015).
